- melting point: 65 to 66.5 °C
Structure (SMILES): Oc1ccc(C2CCCC2)c(O)c1 [Form A, 4-cyclopentyl resorcinol]

— patent publication US7390838B2, “Depigmenting agents” (Pfizer Inc., priority 2003, dated 2008)
